Consider 1 substance from PMC12781162, “Human Protein Z as the Second Known Heme‐Binding Protein from the Endogenous Blood Coagulation Inhibitor System” (Chembiochem, 2025).

“And” between values parts separate entries of the source, which are not always exact repeats. Identical values can stand only once. Like-named read-outs stand apart in the source and are kept apart here.

The target in experiment [1] is T1, PZ (Homo sapiens, UniProt P22891).
T1 construct: purchased CellSystems GmbH HCPZ-0220 (PZ); HCXA-0060 (FXa)
T1 sequence (P22891 41-400): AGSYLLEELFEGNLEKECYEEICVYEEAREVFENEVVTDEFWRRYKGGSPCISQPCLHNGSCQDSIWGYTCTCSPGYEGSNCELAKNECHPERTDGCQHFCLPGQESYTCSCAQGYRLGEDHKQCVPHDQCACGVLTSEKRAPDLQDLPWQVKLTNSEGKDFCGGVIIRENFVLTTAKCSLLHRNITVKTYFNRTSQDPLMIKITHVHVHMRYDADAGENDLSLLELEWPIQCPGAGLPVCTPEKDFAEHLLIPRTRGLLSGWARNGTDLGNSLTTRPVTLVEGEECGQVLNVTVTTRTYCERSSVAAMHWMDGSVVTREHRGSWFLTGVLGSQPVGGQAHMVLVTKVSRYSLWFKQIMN
Nature of the experiment: Thrombin-inhibiting activity of PZ in the presence of heme (chromogenic assay). It counts as biochemical. To be noted: PZ 10 nM, thrombin 30 nM, 30 min preincubation of PZ with heme; read-out: EC50 (increase of inhibitory activity of PZ against thrombin by heme). On the procedure:
Herein, an earlier established chromogenic thrombin amidolytic activity assay system was thus used, inspired by Hogg and Stenflo.^[ [19] ^, [28] ^] PZ (final concentration: 10 nM) was first incubated for 30 min with different heme concentrations (final concentrations: 1–1000 nM). […] Finally, 5 µL of the substrate solution (H‐D‐Phe‐Pip‐Arg‐pNA x 2 HCl (S‐2238); final concentration: 273 µM) was added. Immediately, kinetic measurements at 405 nm were started, using an Infinite 200 Pro spectrophotometer. Heme only, thrombin only, and PZ‐heme only served as controls. For evaluation, the thrombin activity was determined as the change of absorbance per second and always normalized against the basal thrombin activity without PZ. Data were analyzed as the mean of triplicate and the IC50 was calculated by nonlinear regression (GraphPad Prism, version 10.5.0).

The target in experiment [2] is coagulation factor VIII (FVIII). More on the design: method as in PMID 3105105, PMID 22471307, PMID 38631156. To be noted: read-out: K D (heme binding to FVIII); cited from earlier work.
The next experiment concerns the target fibrinogen. On the set-up: method as in PMID 29322134, PMID 27229173. To be noted: read-out: K D (heme binding to fibrinogen); cited from earlier work.
Another experiment addresses T2, Human protein Z (PZ) (Homo sapiens, UniProt P22891).
T2 construct: purchased CellSystems GmbH HCPZ-0220
Kind of experiment: SPR binding of porphyrins to immobilized PZ (single-cycle kinetics). To be noted: for Kd: heterogenous ligand model. On the procedure: (§1) SPR experiments were conducted on a Biacore 8K instrument (Cytiva) to investigate the interaction of PZ with heme, as established before.^[ [19] ^, [35] ^, [37] ^, [43] ^] In brief, PZ (10 µg mL^−1) was dissolved in 10 mM sodium acetate buffer (pH 3.5) and immobilized onto a CM5 sensor chip via standard amine coupling, resulting in a final immobilization level of 767 RU. Heme (stock solution in 30 mM NaOH) was further diluted in running buffer (10 mM HEPES, 150 mM NaCl, and 0.05% Tween 20, pH 7.4). The same was performed with zinc (II) protoporphyrin IX and protoporphyrin IX (Frontier Scientific). Binding kinetics were assessed by injecting seven increasing concentrations of heme (187.5–12,000 nM) in a single‐cycle kinetics format at 25 °C and a flow rate of 30 µL min^−1. Data analysis was performed by global fitting using Biacore Insight Evaluation Software, version 3.0.12.15655 (Cytiva).

Another experiment has as its target thrombin (Homo sapiens, UniProt P00734). Nature of the experiment: SPR binding of porphyrins to immobilized thrombin. On the set-up: human α‐thrombin (HCT‐0020); purchased CellSystems GmbH HCT-0020. To be noted: heterogeneous ligand model. The protocol:
as §1
Figure S7. Heme binds to thrombin. For SPR analysis, thrombin (10 µg/ml) was dissolved in 10 mM sodium acetate buffer (pH 6.0) and immobilized onto a CM5 sensor chip via standard amine coupling, resulting in a final immobilization level of 1826.1 RU. Binding kinetics were assessed by injecting six increasing concentrations of heme (187.5 – 6,000 nM) in a single-cycle kinetics format at 25°C and a flow rate of […]
transient nature of heme binding to thrombin. […]

Experiment [3] has as its target activated protein C (APC). More on the design: method as in PMID 32705892. To be noted: read-out: K D (heme binding to APC); cited from earlier work.
For experiment [4], the target named is T1, PZ. Kind of experiment: aPTT-based one-stage clotting assay: anticoagulant function of PZ against FXa in the presence of heme. It counts as biochemical. To be noted: PZ 32 nM, FXa 0.1 nM; for impact alone on the procoagulant function of FXa or on clotting of pure plasma (aPTT): controls, heme 0.06 – 20 µM. The protocol:
To estimate an effect on molecular level, the structure of the PZ–ZPI complex (PDB: 3H5C^[ [42] ^]) was first inspected with heme attached to PZ. The anticoagulant function of PZ was then analyzed in the presence of heme by a one‐stage clotting assay, which was inspired by previous work from us and others.^[ [19] ^, [27] ^] The aPTT‐based assay was performed with the ball coagulometer KC 4 A (Amelung, Lemgo, Germany). PZ (320 nM) was preincubated with different concentrations of heme (0–100 µM) for 30 min in 1x PBS, pH 7.4. Afterward, 50 µL of the PZ–heme mixture was incubated with 50 µL of Actin FSL, 50 µl CaCl2 (30 mM), and 50 µL FXa (0.5 nM) at 37 °C for 3 min. Finally, 50 µL citrated pooled plasma was added and the clotting time was automatically recorded. The following mixtures served as controls: 1) 50 µL PBS‐heme + 50 µL Actin FSL + 50 µL CaCl2 + 50 µL FXa + 50 µL citrated plasma, 2) 50 µL PBS‐heme + 50 µL Actin FSL + 50 µL CaCl2 + 50 µL PBS + 50 µL citrated plasma, 3) 50 µL PZ–heme + 50 µL Actin FSL + 50 µL CaCl2 + 50 µL PBS + 50 µL citrated plasma, 4) 50 µL PZ‐PBS + 50 µL Actin FSL + 50 µL CaCl2 + 50 µL FXa + 50 µL citrated plasma, 5) 50 µL PZ‐PBS + 50 µL Actin FSL + 50 µL CaCl2 + 50 µL PBS + 50 µL citrated plasma, 6) 50 µL PBS + 50 µL Actin FSL + 50 µL CaCl2 + 50 µL FXa + 50 µL citrated plasma, and 7) 50 µL PBS + 50 µL Actin FSL + 50 µL CaCl2 + 50 µL PBS + 50 µL citrated plasma. Final concentrations in the approach were 6 mM CaCl2, 0–20 µM heme, 32 nM and PZ, 0.1 nM FXa. Data were normalized against the clotting time of citrated plasma only (control (7)) and evaluated as the mean of triplicates. The IC50 was determined by fitting the curves with nonlinear regression (GraphPad Prism, version 10.5.0).

T2 sequence (P22891 41-400): as above

For the substance Hemin [heme], at PZ [1], the half-maximal effective concentration (EC50) was determined as 0.0127 ± 0.00636 µM. Also, the Kd in experiment [2] was 0.002 to 0.013 µM; on fibrinogen it was ~3 µM and ~3.3 µM; at Human protein Z (PZ) (heme 187.5 nM–12 µM, 25 °C, read-out: K D1 (heme-binding affinity for PZ)), 0.123 µM; at Human protein Z (PZ) (read-out: K D2 (second binding event, likely unspecific)), 8.57 µM; at thrombin (read-out: KD1 (porphyrin binding to thrombin)), 0.0929 µM; on thrombin (read-out: KD2 (porphyrin binding to thrombin)) it was 0.709 µM. Moreover, in experiment [3], the Kd was roughly 0.4 µM. The “k a1 (association rate)” value on Human protein Z (PZ) (first binding event) was determined as 47300 M⁻¹ s⁻¹. Also, the “k d1 (dissociation rate)” value on Human protein Z (PZ) (first binding event) amounted to 0.00583 s⁻¹. In addition, the “k a2 (association rate)” value at Human protein Z (PZ) (second binding event) came out at 845 M⁻¹ s⁻¹. Also, the “k d2 (dissociation rate)” value at Human protein Z (PZ) (second binding event) came out at 0.00724 s⁻¹. The “heme level at which the procoagulant function of FXa was restored” value at PZ [4] is reported as no less than 2 µM. The 50% inhibitory concentration (IC50) on PZ [4] (heme 0.06–20 µM, citrated pooled plasma, read-out: IC50 (inhibition of the anticoagulant function of PZ against FXa)) is 0.83 ± 0.21 µM. For the same substance, the results for the “impact alone on the procoagulant function of FXa or on clotting of pure plasma (aPTT)” value on PZ [4] and at PZ [4] (listed as Heme) were “did not exert any significant impact” and “did neither affect”, respectively.
